Results on 14 molecules are retold here after patent US20240115744A1, “FIBRIN-BINDING COMPOUNDS FOR IMAGING AND TREATMENT” (Collagen Medical, LLC, priority 2019, published 2024).

The target of test [1] is T1, soluble fibrin fragment DD(E) (Homo sapiens, UniProt P02671+P02675+P02679, DEL433-453).
T1 construct: partial plasmin digestion of purified fibrin gel followed by size-exclusion chromatographic purification; made in house
Nature of the test: Fluorescence polarization DD(E) binding/displacement assay. The note with it: for Ki: displacement of TRITC-labelled peptide from DD(E), TBS·Ca with 2% DMSO, estimated uncertainty ±10%; for Kd: sub-micromolar affinity, read-out: affinity (Kd) to fibrin as assessed by DD(E) assay. The procedure:
DD(E) was prepared using a published procedure which involved partial plasmin digestion of purified fibrin gel followed by size-exclusion chromatographic purification, and purity was assessed by SDS-PAGE. Peptides modified at the N-terminus with tetramethyl-rhodamine (TRITC) dye bind to DD(E). Direct fluorescent peptide binding to DD(E) was measured by a fluorescence polarization (FP) assay. The anisotropy (robs) of the fluorescently labeled peptides binding to DD(E) (0-20 μM) was measured in Tris buffered saline (50 mM Tris, 100 mM NaCl and 2 mM CaCl2) at fixed compound concentrations, and the data were fit to a single site model (Eq. 1) to obtain the dissociation constant (Kd) for the DD(E)·(fluorescent peptide) complex.
Displacement of the fluorescent peptide by non-fluorescent compound was measured to determine inhibition constants (Ki). In the presence of an inhibitor, an apparent dissociation constant for the fluorescent compound (Kd app) is determined using Eq. 2. The inhibition constant Ki is related to Kd app by Eq. 2, wherein Kd is the true dissociation constant of the fluorescent compound measured in the absence of inhibitor.
Non-labeled peptide binding to DD(E) was measured by a compound displacement assay, where a DD(E)/Fl·pep complex formed at fixed concentrations of DD(E) and Fl·pep was titrated with increasing concentrations of unlabeled compound. The compound was assayed by mixing DD(E) (4.0 μM, 10 μL) and TRITC (0.1 μM, 10 μL) with increasing concentrations of competing peptide (0.4-100 μM, 20 μL) in TBS·Ca with 2% DMSO in a final volume of 40 μL. Fluorescence polarization of the samples (10 μL, triplicate wells) in ascending concentrations was measured in a 384-well microplate (Corning flat black plate), using a Tecan Infinite 200 Pro fluorescence microplate reader equipped with fluorescence polarization filters, a 535 nm excitation filter and a 590 nm fluorescence emission filter. Average polarization (mP units) readings for each dilution of the compound of interest was converted to anisotropy (r) using Eq. 3.
The data defined a displacement curve (robs vs. [Peptide]), and the inhibitory binding constant, Ki, was determined by least squares fitting of the data (estimated uncertainty in Ki±10%). See Table 2 for the Ki values for the Compounds from Example 1.

Test [2] deals with soluble fibrin fragment DD(E). The test can be described thus: fluorescence polarization, displacement of the TRITC peptide from DD(E).

Read-outs that look alike come from different tables or passages of the source. Where a SMILES comes first, the peptide text is derived from it. Bridges are numbered along the chain shown (N, C = ends). [ ]: non-standard residue; d: D form. The star is where a group is joined. Tyr(3-Cl) = N[C@@H](Cc1ccc(O)c(Cl)c1)C(=O)O; Nicotinoyl(6-F) = O=C(c1ccc(F)nc1)*; Hyp = O=C(O)[C@@H]1C[C@@H](O)CN1 Where only a bound is given, the exact number is not on record here.

T1 sequence (P02671 130-216 limits assumed, stated change not applied): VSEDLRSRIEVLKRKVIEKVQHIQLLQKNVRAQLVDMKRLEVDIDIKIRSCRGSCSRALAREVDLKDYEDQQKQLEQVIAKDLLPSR
T1 sequence (P02675 164-491 limits assumed, stated change not applied): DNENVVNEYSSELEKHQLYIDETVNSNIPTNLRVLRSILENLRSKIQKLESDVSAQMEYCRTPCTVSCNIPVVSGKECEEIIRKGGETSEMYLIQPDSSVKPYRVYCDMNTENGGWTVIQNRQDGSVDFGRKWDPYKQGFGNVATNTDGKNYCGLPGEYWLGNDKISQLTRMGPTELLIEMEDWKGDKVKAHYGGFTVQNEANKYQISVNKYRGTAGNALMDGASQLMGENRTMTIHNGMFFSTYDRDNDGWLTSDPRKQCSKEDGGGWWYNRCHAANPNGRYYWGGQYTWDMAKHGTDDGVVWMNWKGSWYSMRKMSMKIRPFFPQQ
T1 sequence (P02679 114-432 limits assumed, stated change not applied): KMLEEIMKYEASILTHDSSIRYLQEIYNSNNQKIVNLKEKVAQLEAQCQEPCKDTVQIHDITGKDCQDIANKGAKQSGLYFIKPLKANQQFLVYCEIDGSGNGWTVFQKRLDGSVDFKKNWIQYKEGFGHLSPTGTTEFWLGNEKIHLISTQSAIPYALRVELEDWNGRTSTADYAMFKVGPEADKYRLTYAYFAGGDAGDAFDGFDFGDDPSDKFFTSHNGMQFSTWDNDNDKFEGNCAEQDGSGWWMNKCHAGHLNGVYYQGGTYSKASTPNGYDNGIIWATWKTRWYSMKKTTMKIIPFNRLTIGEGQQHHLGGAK
T1 sequence (P02671 36-97 partner limits assumed): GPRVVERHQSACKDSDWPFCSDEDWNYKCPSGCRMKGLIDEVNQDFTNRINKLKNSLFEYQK
T1 sequence (P02675 45-152 partner limits assumed): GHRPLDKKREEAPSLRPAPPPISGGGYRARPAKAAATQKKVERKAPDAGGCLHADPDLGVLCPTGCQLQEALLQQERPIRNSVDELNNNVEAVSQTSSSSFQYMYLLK
T1 sequence (P02679 27-88 partner limits assumed): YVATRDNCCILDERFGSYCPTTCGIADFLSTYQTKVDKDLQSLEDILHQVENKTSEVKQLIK

Regarding `CC[C@H](C)[C@H](NC(=O)[C@H](Cc1c[nH]cn1)NC(=O)[C@@H]1CSSC[C@H](NC(=O)[C@@H](CCC(=O)O)NC(=O)[C@@H](Cc2ccc(O)cc2)NC(=O)c2ccc(F)nc2)C(=O)N2C[C@H](O)C[C@H]2C(=O)N[C@@H](Cc2ccc(O)c(Cl)c2)C(=O)NCC(=O)N[C@@H](CC(C)C)C(=O)N1)C(=O)N[C@@H](CCC(N)=O)C(N)=O` [Compound 2, -y-e-C-Hyp-Y(3-Cl)-G-L-C-H-I-Q-] ({Nicotinoyl(6-F)}-[dY][dE]C[Hyp][Tyr(3-Cl)]GLCHIQ-NH2; disulfide 3-8), in test [1] (read-out: Ki), the Ki was 70 nM. The Kd in test [1] is less than 600 nM.

Turning to `CC[C@H](C)[C@H](NC(=O)[C@H](Cc1c[nH]cn1)NC(=O)[C@@H]1CSSC[C@H](NC(=O)[C@@H](CCC(=O)O)NC(=O)[C@@H](Cc2ccc(O)cc2)NC(=O)c2ccc(F)nc2)C(=O)N2C[C@H](O)C[C@H]2C(=O)N[C@@H](Cc2ccc(O)c(Cl)c2)C(=O)NCC(=O)N[C@@H](CC(C)C)C(=O)N1)C(=O)N[C@H](CC(C)C)C(N)=O` [Compound 3, -y-e-C-Hyp-Y(3-Cl)-G-L-C-H-I-1-] ({Nicotinoyl(6-F)}-[dY][dE]C[Hyp][Tyr(3-Cl)]GLCHI[dL]-NH2; disulfide 3-8), the Ki in test [1] (read-out: Ki) is 140 nM. In addition, the dissociation constant Kd in test [1] was less than 600 nM. For `CC[C@H](C)[C@H](NC(=O)[C@H](Cc1c[nH]cn1)NC(=O)[C@@H]1CSSC[C@H](NC(=O)[C@@H](CCC(=O)O)NC(=O)[C@H](Cc2ccc(O)cc2)NC(=O)c2ccc(F)nc2)C(=O)N2C[C@H](O)C[C@H]2C(=O)N[C@@H](Cc2ccc(O)c(Cl)c2)C(=O)NCC(=O)N[C@@H](CC(C)C)C(=O)N1)C(=O)N[C@@H](CCC(N)=O)C(N)=O` [Compound 4, -Y-e-C-Hyp-Y(3-Cl)-G-L-C-H-I-Q-] ({Nicotinoyl(6-F)}-Y[dE]C[Hyp][Tyr(3-Cl)]GLCHIQ-NH2; disulfide 3-8), in that order: 180 nM and less than 600 nM. For `CC[C@H](C)[C@H](NC(=O)[C@H](Cc1c[nH]cn1)NC(=O)[C@@H]1CSSC[C@H](NC(=O)[C@@H](CCC(=O)O)NC(=O)[C@H](Cc2ccc(O)cc2)NC(=O)c2ccc(F)nc2)C(=O)N2C[C@H](O)C[C@H]2C(=O)N[C@@H](Cc2ccc(O)c(Cl)c2)C(=O)NCC(=O)N[C@@H](CC(C)C)C(=O)N1)C(=O)N[C@H](CCC(N)=O)C(N)=O` [Compound 5, -Y-e-C-Hyp-Y(3-Cl)-G-L-C-H-I-q-] ({Nicotinoyl(6-F)}-Y[dE]C[Hyp][Tyr(3-Cl)]GLCHI[dQ]-NH2; disulfide 3-8), in that order: 230 nM and less than 600 nM. As for `CC[C@H](C)[C@H](NC(=O)[C@H](Cc1c[nH]cn1)NC(=O)[C@@H]1CSSC[C@H](NC(=O)[C@@H](CCC(=O)O)NC(=O)[C@H](Cc2ccc(O)cc2)NC(=O)c2ccc(F)nc2)C(=O)N2C[C@H](O)C[C@H]2C(=O)N[C@@H](Cc2ccc(O)c(Cl)c2)C(=O)NCC(=O)N[C@@H](CC(C)C)C(=O)N1)C(=O)N[C@H](CC(C)C)C(N)=O` [Compound 8, -Y-e-C-Hyp-Y(3-Cl)-G-L-C-H-I-1-] ({Nicotinoyl(6-F)}-Y[dE]C[Hyp][Tyr(3-Cl)]GLCHI[dL]-NH2; disulfide 3-8), the inhibition constant (Ki) in test [1] (read-out: Ki) is 640 nM. On the same count and under the same terms, the value for `CC[C@H](C)[C@H](NC(=O)[C@H](Cc1ccc(O)cc1)NC(=O)[C@@H]1CSSC[C@H](NC(=O)[C@@H](CCC(=O)O)NC(=O)[C@@H](Cc2ccc(O)cc2)NC(=O)c2ccc(F)nc2)C(=O)N2C[C@H](O)C[C@H]2C(=O)N[C@@H](Cc2ccc(O)c(Cl)c2)C(=O)NCC(=O)N[C@@H](CC(C)C)C(=O)N1)C(=O)N[C@H](CC(C)C)C(N)=O` [Compound 9, -y-e-C-Hyp-Y(3-Cl)-G-L-C-Y-I-1-] ({Nicotinoyl(6-F)}-[dY][dE]C[Hyp][Tyr(3-Cl)]GLCYI[dL]-NH2; disulfide 3-8) was 730 nM.

For `CC[C@H](C)[C@H](NC(=O)[C@H](Cc1ccc(O)cc1)NC(=O)[C@@H]1CSSC[C@H](NC(=O)[C@@H](CCC(=O)O)NC(=O)[C@H](Cc2ccc(O)cc2)NC(=O)c2ccc(F)nc2)C(=O)N2C[C@H](O)C[C@H]2C(=O)N[C@@H](Cc2ccc(O)c(Cl)c2)C(=O)NCC(=O)N[C@@H](CC(C)C)C(=O)N1)C(=O)N[C@H](CC(C)C)C(N)=O` [Compound 10, -Y-e-C-Hyp-Y(3-Cl)-G-L-C-Y-I-1-] ({Nicotinoyl(6-F)}-Y[dE]C[Hyp][Tyr(3-Cl)]GLCYI[dL]-NH2; disulfide 3-8), the inhibition constant Ki in test [1] (read-out: Ki) was 950 nM. Still for that read-out and setting: the value for `CC[C@H](C)[C@H](NC(=O)[C@H](Cc1ccc(O)cc1)NC(=O)[C@@H]1CSSC[C@H](NC(=O)[C@@H](CCC(=O)O)NC(=O)[C@@H](Cc2ccc(O)cc2)NC(=O)c2ccc(F)nc2)C(=O)N2C[C@H](O)C[C@H]2C(=O)N[C@@H](Cc2ccc(O)c(Cl)c2)C(=O)NCC(=O)N[C@@H](CC(C)C)C(=O)N1)C(=O)N[C@H](CCC(N)=O)C(N)=O` [Compound 11, -y-e-C-Hyp-Y(3-Cl)-G-L-C-Y-I-q-] ({Nicotinoyl(6-F)}-[dY][dE]C[Hyp][Tyr(3-Cl)]GLCYI[dQ]-NH2; disulfide 3-8) was 1010 nM; that for `CC[C@H](C)[C@H](NC(=O)[C@H](Cc1ccc(O)cc1)NC(=O)[C@@H]1CSSC[C@H](NC(=O)[C@@H](CCC(=O)O)NC(=O)[C@H](Cc2ccc(O)cc2)NC(=O)c2ccc(F)nc2)C(=O)N2C[C@H](O)C[C@H]2C(=O)N[C@@H](Cc2ccc(O)c(Cl)c2)C(=O)N[C@@H](CC(=O)O)C(=O)N[C@@H](CC(C)C)C(=O)N1)C(=O)N[C@@H](CCC(N)=O)C(N)=O` [Compound 12, -Y-e-C-Hyp-Y(3-Cl)-D-L-C-Y-I-Q-] ({Nicotinoyl(6-F)}-Y[dE]C[Hyp][Tyr(3-Cl)]DLCYIQ-NH2; disulfide 3-8) was 1200 nM. The same measure, in the same setting: the value for `CC[C@H](C)[C@H](NC(=O)[C@H](Cc1ccc(O)cc1)NC(=O)[C@@H]1CSSC[C@H](NC(=O)[C@@H](CCC(=O)O)NC(=O)[C@H](Cc2ccc(O)cc2)NC(=O)c2ccc(F)nc2)C(=O)N2C[C@H](O)C[C@H]2C(=O)N[C@@H](Cc2ccc(O)c(Cl)c2)C(=O)NCC(=O)N[C@@H](CC(C)C)C(=O)N1)C(=O)N[C@H](CCC(N)=O)C(N)=O` [Compound 13, -Y-e-C-Hyp-Y(3-Cl)-G-L-C-Y-I-q-] ({Nicotinoyl(6-F)}-Y[dE]C[Hyp][Tyr(3-Cl)]GLCYI[dQ]-NH2; disulfide 3-8) was 1250 nM; that for `CC[C@H](C)[C@H](NC(=O)[C@H](Cc1ccc(O)cc1)NC(=O)[C@@H]1CSSC[C@H](NC(=O)[C@@H](CCC(=O)O)NC(=O)[C@H](Cc2ccc(O)cc2)NC(=O)c2ccc(F)nc2)C(=O)N2C[C@H](O)C[C@H]2C(=O)N[C@@H](Cc2ccc(O)c(Cl)c2)C(=O)N[C@H](CC(=O)O)C(=O)N[C@@H](CC(C)C)C(=O)N1)C(=O)N[C@@H](CCC(N)=O)C(N)=O` [Compound 14, -Y-e-C-Hyp-Y(3-Cl)-d-L-C-Y-I-Q-] ({Nicotinoyl(6-F)}-Y[dE]C[Hyp][Tyr(3-Cl)][dD]LCYIQ-NH2; disulfide 3-8) was 2760 nM.

As to “-Y-h-C-Hyp-Y(3-Cl)-G-L-C-Y-I-Q- ({Nicotinoyl(6-F)}-Y[dH]C[Hyp][Tyr(3-Cl)]GLCYIQ-NH2; disulfide 3-8; not fully specified; printed as -Y-h-C-Hyp-Y(3-Cl)-G-L-C-Y-I-Q-) [Compound 15, N-terminal modified peptide (F is fluorine), C-terminal amide]”, in test [1], the Ki entry is reported as “No”.

B1: Compound 11 (peptide)
peptide: {Nicotinoyl(6-F)}-[dY][dE]C[Hyp][Tyr(3-Cl)]GLCYI[dQ]-NH2
modifications: disulfide 3-8
SMILES: CC[C@H](C)[C@H](NC(=O)[C@H](Cc1ccc(O)cc1)NC(=O)[C@@H]1CSSC[C@H](NC(=O)[C@@H](CCC(=O)O)NC(=O)[C@@H](Cc2ccc(O)cc2)NC(=O)c2ccc(F)nc2)C(=O)N2C[C@H](O)C[C@H]2C(=O)N[C@@H](Cc2ccc(O)c(Cl)c2)C(=O)NCC(=O)N[C@@H](CC(C)C)C(=O)N1)C(=O)N[C@H](CCC(N)=O)C(N)=O
B1: the inhibitory constant (Ki) in test [2] was 1010 nM.

B2: Compound 10 (peptide)
peptide: {Nicotinoyl(6-F)}-Y[dE]C[Hyp][Tyr(3-Cl)]GLCYI[dL]-NH2
modifications: disulfide 3-8
SMILES: CC[C@H](C)[C@H](NC(=O)[C@H](Cc1ccc(O)cc1)NC(=O)[C@@H]1CSSC[C@H](NC(=O)[C@@H](CCC(=O)O)NC(=O)[C@H](Cc2ccc(O)cc2)NC(=O)c2ccc(F)nc2)C(=O)N2C[C@H](O)C[C@H]2C(=O)N[C@@H](Cc2ccc(O)c(Cl)c2)C(=O)NCC(=O)N[C@@H](CC(C)C)C(=O)N1)C(=O)N[C@H](CC(C)C)C(N)=O
For the molecule B2, the Ki in test [2] is 950 nM.
